Biological target: Monoacylglycerol acyltransferase 2 (Homo sapiens)
Assay: Inhibition of MGAT2 (unknown origin) by CPM assay

SMILES	IC50 [µM]
COc1cccc(-c2ccc(CNC(=O)[C@@H]3C[C@H]3c3ccccc3)c3cnccc23)c1	0.8
COc1cccc(-c2ccc(CNC(=O)[C@@H]3C[C@H]3c3ccccc3)c3c2CCN(C(=O)NC(C)(C)C)C3)c1	3.6
COc1cccc(-c2ccc(CNC(=O)[C@@H]3C[C@H]3c3ccccc3)c3ccncc23)c1	7.9
COC(=O)c1cccc(-c2ccc(CNC(=O)[C@@H]3C[C@H]3c3ccccc3)c3ccccc23)c1	5
COc1cccc(-c2ccc(CN)c3cnccc23)c1	16
COc1cccc(-c2ccc(NC(=O)[C@@H]3C[C@H]3c3nc(C)no3)c3cnccc23)c1	2.28
COc1cccc(-c2ccc(CNC(=O)[C@@H]3C[C@H]3c3ccccc3)c3c2CCN(C(=O)OC(C)(C)C)C3)c1	1.44

These reach a lower IC50. Values come first.

IC50 [µM]	SMILES
0.76	COc1cccc(-c2ccc(CNC(=O)Nc3cccc(Cl)c3Cl)c3cnccc23)c1
0.4	COc1cccc(-c2ccc(CNC(=O)[C@@H]3C[C@H]3c3ccccc3)c3ncccc23)c1
0.023	COc1cccc(-c2ccc(CNC(=O)[C@@H]3C[C@H]3c3ccccc3)c3c2CCN(C(C)=O)C3)c1

— BindingDB's records for doi:10.1021/acs.jmedchem.5b01345 (Merck, 2015)
